{"source": "ChEMBL document CHEMBL4364251", "about": "“Design, synthesis and biological evaluation of new quinoline derivatives as potential antitumor agents” (Eur J Med Chem, 2019)", "key": {"[1]": {"test": "Toxicity in BALB/c mouse xenografted with mouse […] cells at 80 mg/kg administrated once every three days for 21 days", "format": "organism-based", "details": "in vivo, 504 h"}, "HCT-116 [2]": {"tested_on": "HCT-116", "test": "Induction of apoptosis in human HCT116 cells assessed as viable cells at 8 uM incubated for 24 hrs by annexin-V-FITC/PI staining based FACS analysis (reference value: 94.35 to 94.43%)", "format": "functional", "details": "HCT-116, 24 h, read-out: Activity"}, "HCT-116 [3]": {"tested_on": "HCT-116", "test": "Growth inhibition of human HCT116 cells incubated for 24 hrs by CCK-8 assay", "format": "functional, cell-based"}, "HeLa": {"tested_on": "HeLa", "test": "Antiproliferative activity against human HeLa cells incubated for 48 hrs by MTT assay", "format": "functional, cell-based"}, "HCT-116 [4]": {"tested_on": "HCT-116", "test": "Induction of autophagy in human HCT116 cells assessed as decrease in ATG7 protein expression level incubated for 24 hrs by Western blot analysis", "format": "functional, cell-based"}, "HCT-116 [5]": {"tested_on": "HCT-116", "test": "Growth inhibition of human HCT116 cells at 1 uM by CCK-8 assay", "format": "functional, cell-based", "details": "TDE = time-dependent effect"}, "HCT-116 [6]": {"tested_on": "HCT-116", "test": "Induction of apoptosis in human HCT116 cells assessed as necrotic cells at 4 uM incubated for 24 hrs in presence of pan-caspase inhibitor z-VAD-FMK by annexin-V-FITC/PI staining based FACS analysis (reference value: 0.6%)", "format": "functional"}, "HCT-116 [7]": {"tested_on": "HCT-116", "test": "Induction of apoptosis in human HCT116 cells deficient in ATG7 assessed as late apoptotic cells at 8 uM incubated for 24 hrs by annexin-V-FITC/PI staining based FACS analysis (Rvb =6.56%)", "format": "functional"}, "HCT-116 [8]": {"tested_on": "HCT-116", "test": "Induction of apoptosis in human HCT116 cells assessed as necrotic cells at 8 uM incubated for 24 hrs by annexin-V-FITC/PI staining based FACS analysis (reference value: 0.71 to 2.26%)", "format": "functional"}, "HCT-116 [9]": {"tested_on": "HCT-116", "test": "Induction of apoptosis in human HCT116 cells assessed as viable cells at 4 uM incubated for 24 hrs by annexin-V-FITC/PI staining based FACS analysis (reference value: 94.35 to 94.43%)", "format": "functional", "details": "HCT-116, 24 h, read-out: Activity"}, "HCT-116 [10]": {"tested_on": "HCT-116", "test": "Induction of apoptosis in human HCT116 cells assessed as viable cells at 4 uM incubated for 24 hrs in presence of pan-caspase inhibitor z-VAD-FMK by annexin-V-FITC/PI staining based FACS analysis (reference value: 85.28%)", "format": "functional", "details": "HCT-116, 24 h, read-out: Activity"}, "HCT-116 [11]": {"tested_on": "HCT-116", "test": "Induction of apoptosis in human HCT116 cells assessed as increase in cleaved PARP protein expression level at 4 to 8 uM incubated for 24 hrs by Western blot analysis", "format": "functional, cell-based"}, "HCT-116 [12]": {"tested_on": "HCT-116", "test": "Induction of apoptosis in human HCT116 cells assessed as viable cells at 8 uM incubated for 24 hrs in presence of pan-caspase inhibitor z-VAD-FMK by annexin-V-FITC/PI staining based FACS analysis (reference value: 85.28%)", "format": "functional", "details": "HCT-116, 24 h, read-out: Activity"}, "HCT-116 [13]": {"tested_on": "HCT-116", "test": "Induction of apoptosis in human HCT116 cells assessed as early apoptotic cells at 8 uM incubated for 24 hrs by annexin-V-FITC/PI staining based FACS analysis (reference value: 1.77 to 3.38%)", "format": "functional"}, "HCT-116 [14]": {"tested_on": "HCT-116", "test": "Induction of apoptosis in human HCT116 cells assessed as necrotic cells at 8 uM incubated for 24 hrs in presence of pan-caspase inhibitor z-VAD-FMK by annexin-V-FITC/PI staining based FACS analysis (reference value: 0.6%)", "format": "functional"}}, "note": "The source made the active and inactive calls. The calls are words filed in the database; no cut-off is given here.", "data": [{"smiles": "COc1cccc(Nc2ccnc3cc(OCCCc4ccccc4)ccc23)c1", "values": [{"measurement": "Activity", "setting": "[1]", "value": "Non-Toxic"}, {"measurement": "viability at 8 µM", "setting": "HCT-116 [2]", "value": "60.5 to 62.2", "unit": "%"}, {"measurement": "growth inhibition (GI)", "setting": "HCT-116 [3]", "value": "Dose-dependent effect"}, {"measurement": "IC50", "setting": "HeLa", "value": 2.71, "unit": "µM"}, {"measurement": "Activity", "setting": "HCT-116 [4]", "value": "Dose-dependent effect"}, {"measurement": "growth inhibition (GI)", "setting": "HCT-116 [5]", "value": "Tde"}, {"measurement": "Activity", "setting": "HCT-116 [6]", "value": 1.3, "unit": "%"}, {"measurement": "Activity", "setting": "HCT-116 [7]", "value": 11.04, "unit": "%"}, {"measurement": "Activity", "setting": "HCT-116 [8]", "value": "2.19 - 5.82%"}, {"measurement": "viability at 4 µM", "setting": "HCT-116 [9]", "value": 75.4, "unit": "%"}, {"measurement": "viability at 4 µM", "setting": "HCT-116 [10]", "value": 75.1, "unit": "%"}, {"measurement": "Activity", "setting": "HCT-116 [11]", "value": "Active"}, {"measurement": "viability at 8 µM", "setting": "HCT-116 [12]", "value": 62.9, "unit": "%"}, {"measurement": "Activity", "setting": "HCT-116 [13]", "value": "17.9 - 18.35%"}, {"measurement": "Activity", "setting": "HCT-116 [14]", "value": 1.71, "unit": "%"}]}]}
